Data from US20150307938A1, “METHOD TO IDENTIFY A NOVEL CLASS OF IMMUNOLOGIC ADJUVANTS” (Lancell, L.L.C., priority 2011, published 2015).

Tested on: skin
Assay: Affymetrix microarray of skin, DBP-4 hr and analogs vs. untreated; gene selection by log-2 fold change, Wilcoxon, Kendall tau (Tables 8, 9)
Type: in vivo, mouse
Details: for Kendall: Kendall tau coefficient
[1] = DBP-4 hr vs. untreated, rank-sum p-value
[2] = Kendall tau, expression vs. output

CCCCOC(=O)c1ccccc1C(=O)OCCCC [DBP, dibutylphthalate]
Gm10229 XM_003086003_at Wilcoxon [1]: Yes
Gsdmc NM_031378_at Wilcoxon [1]: Yes
H19 NR_001592_at Wilcoxon [1]: Yes
Il1rl1 NM_001025602_at Wilcoxon [1]: No
Inpp5a NM_001127363_at Wilcoxon [1]: No
Inpp5d NM_001110192_at Wilcoxon [1]: No
Inpp5d NM_001110193_at Wilcoxon [1]: No
Klhdc5 NM_001081237_at Wilcoxon [1]: No
Krt33a NM_027983_at Wilcoxon [1]: Yes
Krt34 NM_027563_at Wilcoxon [1]: Yes
Krtap1-5 NM_027157_at Wilcoxon [1]: Yes
Krtap3-1 NM_023511_at Wilcoxon [1]: Yes
Krtap3-3 NM_025524_at Wilcoxon [1]: Yes
Krtap4-2 NM_026807_at Wilcoxon [1]: Yes
Krtap5-2 NM_027844_at Wilcoxon [1]: Yes
Krtap9-3 NM_029351_at Wilcoxon [1]: Yes
Krtap13-1 NM_183189_at Wilcoxon [1]: Yes
Krtap16-1 NM_130870_at Wilcoxon [1]: Yes
Krtap16-5 NM_130857_at Wilcoxon [1]: Yes
Krtap16-7 NM_028621_at Wilcoxon [1]: Yes
Krtap16-8 NM_130856_at Wilcoxon [1]: Yes
Krtap16-9 NM_130876_at Wilcoxon [1]: Yes
Krtap16-10 NM_183296_at Wilcoxon [1]: Yes
Krtap28-13 XM_896507_at Wilcoxon [1]: Yes
Krtap28-13 XM_919110_at Wilcoxon [1]: Yes
LOC100503254 XM_003085741_at Wilcoxon [1]: Yes
Lmod2 NM_053098_at Wilcoxon [1]: Yes
Lyz2 NM_017372_at Wilcoxon [1]: Yes
Mfhas1 NM_001081279_at Wilcoxon [1]: No
Mfsd4 NM_001114662_at Wilcoxon [1]: No
Mia1 NM_019394_at Wilcoxon [1]: Yes
Mrpl44 NM_001081210_at Wilcoxon [1]: No
Ms4a6d NM_026835_at Wilcoxon [1]: Yes
Mylpf NM_016754_at Wilcoxon [1]: Yes
Myoz2 NM_021503_at Wilcoxon [1]: Yes
Ncbp1 NM_001033201_at Wilcoxon [1]: No
Nolc1 NM_001039351_at Wilcoxon [1]: No
Nolc1 NM_001039352_at Wilcoxon [1]: No
Nolc1 NM_001039353_at Wilcoxon [1]: No
Nrap NM_198059_at Wilcoxon [1]: Yes
Nusap1 NM_133851_at Wilcoxon [1]: Yes
Ogfrl1 NM_001081079_at Wilcoxon [1]: No
Olr1 NM_138648_at Wilcoxon [1]: Yes
Oxr1 NM_001130163_at Wilcoxon [1]: No
Oxr1 NM_001130164_at Wilcoxon [1]: No
Oxr1 NM_001130165_at Wilcoxon [1]: No
Oxr1 NM_001130166_at Wilcoxon [1]: No
Pgam2 NM_018870_at Wilcoxon [1]: Yes
Pigyl NM_001082532_at Wilcoxon [1]: No
Pparg NM_001127330_at Wilcoxon [1]: No
Ppih NM_001110129_at Wilcoxon [1]: No
Prg4 NM_021400_at Wilcoxon [1]: Yes
Retnla NM_020509_at Wilcoxon [1]: Yes
Rffl NM_001007465_at Wilcoxon [1]: No
Rn18s NR_003278_at Wilcoxon [1]: Yes
Rpl3l NM_025425_at Wilcoxon [1]: Yes
Slc39a14 NM_001135151_at Wilcoxon [1]: No
Sln NM_025540_at Wilcoxon [1]: Yes
Smpx NM_025357_at Wilcoxon [1]: Yes
Tnfrsf9 NM_001077508_at Wilcoxon [1]: No
Tnfrsf9 NM_001077509_at Wilcoxon [1]: No
Tnni1 NM_021467_at Wilcoxon [1]: Yes
Trdn NM_029726_at Wilcoxon [1]: Yes
Trf NM_133977_at Wilcoxon [1]: Yes
Trp63 NM_001127259_at Wilcoxon [1]: No
Trp63 NM_001127260_at Wilcoxon [1]: No
Trp63 NM_001127262_at Wilcoxon [1]: No
Trp63 NM_001127264_at Wilcoxon [1]: No
Ttn NM_028004_at Wilcoxon [1]: Yes
Wbp1 NM_001083922_at Wilcoxon [1]: No
Wbp1 NM_001083923_at Wilcoxon [1]: No
Wfdc2 NM_026323_at Wilcoxon [1]: Yes
Zfp68 NM_001044747_at Wilcoxon [1]: No
Zfp187 NM_001013786_at Wilcoxon [1]: No
Zfp518b NM_001081144_at Wilcoxon [1]: No
Zfp943 NM_001025373_at Wilcoxon [1]: No
Wilcoxon (Egr1 NM_007913_at, DBP-4 hr vs. untreated): Yes
Kendall (Egr1 NM_007913_at): No
Wilcoxon (Ehf NM_007914_at, DBP-4 hr vs. untreated): Yes
Kendall (Ehf NM_007914_at): No
Wilcoxon (Ereg NM_007950_at, DBP-4 hr vs. untreated): Yes
Kendall (Ereg NM_007950_at): No
Wilcoxon (Fgfbp1 NM_008009_at, DBP-4 hr vs. untreated): No
Kendall (Fgfbp1 NM_008009_at): No
Wilcoxon (Gch1 NM_008102_at, DBP-4 hr vs. untreated): Yes
Kendall (Gch1 NM_008102_at): No
Wilcoxon (Gjb2 NM_008125_at, DBP-4 hr vs. untreated): Yes
Kendall (Gjb2 NM_008125_at): No
Wilcoxon (Gpr65 NM_008152_at, DBP-4 hr vs. untreated): Yes
Kendall (Gpr65 NM_008152_at): No
1110032A04Rik NM_133675_at Kendall [2]: No
2510002D24Rik NM_001033164_at Kendall [2]: Yes
2510009E07Rik NM_001001881_at Kendall [2]: Yes
2610528A11Rik XR_105647_at Kendall [2]: No
1500015010Rik NM_024283_at Kendall [2]: No
3110079015Rik NM_028473_at Kendall [2]: No
A2m NM_175628_at Kendall [2]: No
AY026312 NM_133359_at Kendall [2]: No
Actn2 NM_033268_at Kendall [2]: No
Akr1c14 NM_134072_at Kendall [2]: No
Aldh7a1 NM_001127338_at Kendall [2]: Yes
Aox4 NM_023631_at Kendall [2]: No
Asb5 NM_029569_at Kendall [2]: No
Atp2a2 NM_001110140_at Kendall [2]: Yes
Atp13a3 NM_001128094_at Kendall [2]: Yes
Atp13a3 NM_001128096_at Kendall [2]: Yes
Bcr NM_001081412_at Kendall [2]: Yes
Camk2g NM_001039138_at Kendall [2]: Yes
Camk2g NM_001039139_at Kendall [2]: Yes
Ccl8 NM_021443_at Kendall [2]: No
Ccl24 NM_019577_at Kendall [2]: No
Cd209d NM_130904_at Kendall [2]: No
Ckmt2 NM_198415_at Kendall [2]: No
Cldn8 NM_018778_at Kendall [2]: No
Clec4n NM_020001_at Kendall [2]: No
Cmya5 NM_023821_at Kendall [2]: No
Comp NM_016685_at Kendall [2]: No
Corin NM_016869_at Kendall [2]: No
Crispld1 NM_031402_at Kendall [2]: No
Cxcl10 NM_021274_at Kendall [2]: No
Cxcr6 NM_030712_at Kendall [2]: No
Cyth1 NM_001112699_at Kendall [2]: Yes
Cyth1 NM_001112700_at Kendall [2]: Yes
Dbp NM_016974_at Kendall [2]: No
Deptor NM_001037937_at Kendall [2]: Yes
Dlgap4 NM_001042487_at Kendall [2]: Yes
Dlgap4 NM_001042488_at Kendall [2]: Yes
Ear5 NM_019398_at Kendall [2]: No
Fam134b NM_001034851_at Kendall [2]: Yes
Gcdh NM_001044744_at Kendall [2]: Yes
Gm10228 XM_001474297_at Kendall [2]: No
Gm10228 XM_003086004_at Kendall [2]: No
Gm10229 XM_003086003_at Kendall [2]: No
Gsdmc NM_031378_at Kendall [2]: No
H19 NR_001592_at Kendall [2]: No
Il1rl1 NM_001025602_at Kendall [2]: Yes
Inpp5a NM_001127363_at Kendall [2]: Yes
Inpp5d NM_001110192_at Kendall [2]: Yes
Inpp5d NM_001110193_at Kendall [2]: Yes
Klhdc5 NM_001081237_at Kendall [2]: Yes
Krt33a NM_027983_at Kendall [2]: No
Krt34 NM_027563_at Kendall [2]: No
Krtap1-5 NM_027157_at Kendall [2]: No
Krtap3-1 NM_023511_at Kendall [2]: No
Krtap3-3 NM_025524_at Kendall [2]: No
Krtap4-2 NM_026807_at Kendall [2]: No
Krtap5-2 NM_027844_at Kendall [2]: No
Krtap9-3 NM_029351_at Kendall [2]: No
Krtap13-1 NM_183189_at Kendall [2]: No
Krtap16-1 NM_130870_at Kendall [2]: No
Krtap16-5 NM_130857_at Kendall [2]: No
Krtap16-7 NM_028621_at Kendall [2]: No
Krtap16-8 NM_130856_at Kendall [2]: No
Krtap16-9 NM_130876_at Kendall [2]: No
Krtap16-10 NM_183296_at Kendall [2]: No
Krtap28-13 XM_896507_at Kendall [2]: No
Krtap28-13 XM_919110_at Kendall [2]: No
LOC100503254 XM_003085741_at Kendall [2]: No
Lmod2 NM_053098_at Kendall [2]: No
Lyz2 NM_017372_at Kendall [2]: No
Mfhas1 NM_001081279_at Kendall [2]: Yes
Mfsd4 NM_001114662_at Kendall [2]: Yes
Mia1 NM_019394_at Kendall [2]: No
Mrpl44 NM_001081210_at Kendall [2]: Yes
Ms4a6d NM_026835_at Kendall [2]: No
Mylpf NM_016754_at Kendall [2]: No
Myoz2 NM_021503_at Kendall [2]: No
Ncbp1 NM_001033201_at Kendall [2]: Yes
Nolc1 NM_001039351_at Kendall [2]: Yes
Nolc1 NM_001039352_at Kendall [2]: Yes
Nolc1 NM_001039353_at Kendall [2]: Yes
Nrap NM_198059_at Kendall [2]: No
Nusap1 NM_133851_at Kendall [2]: No
Ogfrl1 NM_001081079_at Kendall [2]: Yes
Olr1 NM_138648_at Kendall [2]: No
Oxr1 NM_001130163_at Kendall [2]: Yes
Oxr1 NM_001130164_at Kendall [2]: Yes
Oxr1 NM_001130165_at Kendall [2]: Yes
